Data from article PMC12040169 (PLOS Biology, 2025).

assay: in vitro; conditions: human, hela cells, % viability

SMILES	viability at 28.5 h, 10 µM [%]
CN(C)CCO/N=C(\c1ccccc1)c1ccncc1 [CBK261095G]	94.2
S=C(NCCN1CCCCC1)NCc1ccccc1 [CBK263066]	112
O=c1[nH]c2ncc(-c3ccsc3)nc2n1CC1CCOCC1 [CBK064293]	86.3
COc1ccc([C@]23CN(C)C[C@H]2CCN(C(=O)Nc2ccc(Cl)c(F)c2)C3)cc1OC [CBK081140T]	98.3
C=CCOc1c(Br)cc(CNc2cccc(C(=O)O)c2)cc1OC [CBK074581]	97.3
COc1ccc(C(C)C)cc1-c1cnc(N)c(NCCCN2CCOCC2)n1 [CBK063625]	79.4
O=C(O)COc1ccc(Br)cc1/C=C1\N=C(SCc2ccccc2)SC1=O [CBK265725]	110
c1ccc(CCN2CCCN(c3ccnc(OCCN4CCOCC4)n3)CC2)cc1 [CBK083810]	89.3
CC(=O)N1CCC2(C/C=C/C[C@H]3CN(Cc4nccs4)CC[C@H]3NC(=O)CNC2=O)CC1 [CBK292169]	111
CCOC(=O)CCNC(C)C1COc2ccccc2O1 (stereo not drawn) [CBK074284G]	101
O=c1c2ccccc2[nH]c(=S)n1CCCN1CCC(Cc2ccccc2)CC1 [CBK267952]	86.2
CCc1ccc(O)c(NC(=S)NC(=O)c2cccc3c(Br)cccc23)c1 [CBK264385]	111
C[N+](C)(C)CCC(=O)CCC(=O)O [CBK262012I]	102
O=C(c1ccc(-c2nccnc2NCC2CC2)cc1)N1CCOCC1 [CBK036814]	88.8
CCOC(=O)CC1C(=O)NCCN1Cc1ccoc1 (stereo not drawn) [CBK270066]	92.4
Cn1cc(CNCC2CCCN2c2cccnn2)c(-c2cccnc2)n1 (stereo not drawn) [CBK305326]	96.2
CC(C)S(=O)(=O)n1c(=O)n(CC(=O)c2csc3ccccc23)c2ccccc21 [CBK106559]	99.8
c1ccc(-c2nnc(-c3ccco3)c(-c3ccco3)n2)cc1 [CBK286196]	83.7
CCOc1cc2c(cc1CN(Cc1ccc3c(c1)OCO3)CC(C)O)CCC2 (stereo not drawn) [CBK286474]	87.2
Cc1nc2nc(-c3ccc(Cl)s3)cn2nc1C [CBK284565]	103
NC(=O)Cn1c(=O)n(CCc2ccccc2)c(=O)c2c3c(sc21)CCCC3 [CBK267665]	103
Brc1ccc2nc(NCc3ccccn3)nc(-c3ccccc3)c2c1 [CBK266736]	89.3

SMILES	viability at 28.5 h, 10 µM [%]
N#Cc1ccnc(N2CCN(CC(=O)NCC(F)(F)F)CC2)c1 [CBK305042]	95.1
COc1ccc(CC(=O)N2C3CCC2CC(O)(c2ccco2)C3)cc1 (stereo not drawn) [CBK284137]	92.5
CN(C)c1cccc2c(S(=O)(=O)n3c(=O)n(Cc4ccc(S(C)(=O)=O)cc4)c4ccccc43)cccc12 [CBK106535]	103
Cc1nc2c(c(=O)[nH]1)CC[C@@H]1CN(C(=O)c3cccs3)C[C@H]21 [CBK284406]	88.7
CCc1nc2c(OCc3ccc(S(C)(=O)=O)cc3)cccn2c1N(CCOC)C(C)=O [CBK147846]	87.4
O=C(COc1ccc(F)cc1)N1CCN(c2ncccn2)CC1 [CBK144499]	94.1
CN(C)CCCN1C(=O)C(O)=C(C(=O)c2ccc(F)cc2)C1c1ccco1 (stereo not drawn) [CBK264456]	94.6
CCN1C(=O)COC[C@@H]1[C@H](O)c1ccc(NC(=O)C2CCC2)cc1 [CBK289686]	85.7
COc1ccc(C(=O)Nc2ccccc2N2CCN(C)CC2)cc1Cl [CBK268001]	90.5
CSc1ccc(-c2cnc3ncccc3c2N)cc1 [CBK083680]	101
COc1ccc(C(=O)Nc2ccc3c(c2)C(=O)N(CCC(=O)O)C3=O)cc1 [CBK265921]	93.1
O=C(NC[C@H]1O[C@@H](CC(=O)N2CCCC2)[C@H](O)[C@@H]1O)c1cccc(F)c1 [CBK288908]	88.3
O=C(O)c1ccc2c(c1)CCN2S(=O)(=O)c1ccc(S(=O)(=O)N2CCOCC2)cc1 [CBK295625]	97.1
O=c1/c(=C/c2cccnc2)sc2n1CN(c1cccc([N+](=O)[O-])c1)CN=2 [CBK264401]	76.9
C[C@H](c1ccccc1)n1c(=O)[nH]c2ncc(-c3cccc(-c4ccccc4)c3)nc21 [CBK064158]	96.5
CCOC(=O)CN(Cc1ccccc1)S(=O)(=O)c1ccc(C(C)C)cc1 [CBK043404]	103
COC(=O)c1cc(C)sc1NC(=S)Nc1cnn(Cc2cccc3ccccc23)c1 [CBK267098]	101
CC(=O)Cn1cnc2c(cnn2-c2cccc(Cl)c2)c1=O [CBK287692]	84.4
C=CCn1c(SCC(=O)Nc2cc(Cl)ccc2O)nnc1-c1ccccc1O [CBK269102]	100
Cc1ccc(CN(CCCn2ccnc2)Cc2cnn(C)c2)s1 [CBK283113]	97.3
O=C(Nc1nc2ccccc2[nH]1)c1ccncc1 [CBK288626]	95.3
Cc1cnc2[nH]c(C(F)(F)F)c(CN3CCOCC3)c2c1 [CBK284766]	85.7

SMILES	viability at 28.5 h, 10 µM [%]
c1cc(N2CCN(CCN3CCCC3)CC2)ncc1-c1ccc2c(c1)OCO2 [CBK037769]	95.1
COc1ccc(NC(=O)CSc2nnc(C(O)c3ccccc3)n2C)cc1 (stereo not drawn) [CBK266053]	110
Cc1cc(NS(=O)(=O)c2ccc(Oc3ccccc3)cc2)n(C)n1 [CBK067249]	96.2
COc1cccc(C(=O)Nc2ccc(-c3noc(-c4ccncc4)n3)cc2)c1 [CBK269892]	93.4
NS(=O)(=O)c1ccc(C(=O)N2CCC3(CCN(C(=O)Cc4c[nH]c5ccccc45)C3)C2)cc1 (stereo not drawn) [CBK131425]	100
Cn1cc(C(=O)N2CCc3nc(-c4ccccc4F)sc3C2)cn1 [CBK281914]	89
CS(=O)(=O)c1ccc(-n2cc(CN3CCC(Sc4ccccc4)CC3)nn2)cc1 [CBK149468]	101
CS(=O)(=O)N1CCc2cc(-c3csc(C4CC4)n3)ccc21 [CBK306347]	70.5
COc1ccc(CN2CCC(C(=O)NC(c3ccc(OC)nc3)c3ccccc3C)CC2)cc1 (stereo not drawn) [CBK081445T]	86.7
COc1ccc(S(=O)(=O)N2CCC(C(=O)NCc3cccnc3)CC2)cc1Cl [CBK267613]	95.2
CCc1cccc2c1Sc1ccccc1CC2N1CCN(C)CC1 (stereo not drawn) [CBK026248G]	103
O=C(C1CCN(S(=O)(=O)c2ccccc2)CC1)N1CCN(Cc2ccc3c(c2)OCO3)CC1 [CBK265713]	104
COc1ccc(C(=O)/C=C(\Nc2cccc(C(F)(F)F)c2)C(=O)O)cc1 [CBK264387]	107
NCCc1nc2ccccc2[nH]1 [CBK278287C]	91.8
O=C(O)CN(CC(=O)O)S(=O)(=O)c1ccc(Cl)cc1 [CBK261526]	92.2
COc1ccccc1NC(=O)CNC(=O)c1ccc([N+](=O)[O-])cc1 [CBK268657]	91.9
O=C(CSc1nc2sc3c(c2c(=O)n1-c1ccccc1)CCCC3)NCCc1ccccc1 [CBK263280]	93.7
CCCCN(C(C)=O)c1c(CC)nc2ccc(C(=O)NCc3ccccc3OC)cn12 [CBK145761]	96
O=C(Cc1ccccc1)N1C[C@@H]2CCCCN(CC3CC3)[C@@H]2C1 [CBK285497]	111
CCN(CC(=O)NCc1cccs1)C(=O)CN1CCCC1c1ccc(C)cc1 (stereo not drawn) [CBK297761]	104
O=C(NCc1ccccc1)c1ccccc1NS(=O)(=O)c1ccccc1F [CBK113881]	106
Cc1nc(COc2ccc(C(=O)N3CCCC(C(N)=O)C3)cc2)no1 (stereo not drawn) [CBK305660]	84.2

SMILES	viability at 28.5 h, 10 µM [%]
COc1ncc(-c2cnc3[nH]c(=O)n(CC4CCOCC4)c3n2)cn1 [CBK064898]	98.1
Cc1cccc(OCC(=O)NC(=S)Nc2cccc(C(=O)O)c2C)c1 [CBK265067]	96.3
COc1ccc(C(=O)NNC(=O)c2cccc(Cl)c2)cc1OC [CBK261704]	91.4
COC(=O)C1C=C(NS(=O)(=O)c2ccc(-c3ccnc(SC)n3)s2)C=CC1 (stereo not drawn) [CBK160388]	104
Fc1ccc(CNCCN2CCOCC2)cc1 [CBK278192C]	105
Cc1ccc(C)c(OCCN(C)c2cc(C3CC(N)C3)nc(N)n2)c1 (stereo not drawn) [CBK307695]	45.4
COc1cc2c(cc1OC)CN(C(=O)c1ccc3[nH]cnc3c1)CC2 [CBK295331]	52.8
CCNc1nc(NCc2ccccc2)nc(Oc2ccc(=O)[nH]n2)n1 [CBK266591]	104
Cc1cccc(-c2noc([C@@H]3Cc4[nH]cnc4CN3C(=O)NC(C)C)n2)c1 [CBK288962]	97.6
COc1ccc(OC)c(NC(=O)CSc2nnc(-c3ccc(N)cc3)n2C)c1 [CBK265872]	106
COc1ccnc(N2CCCN(Cc3ncc(Cl)n3C)CC2)n1 [CBK305152]	111
CS(=O)(=O)N(CC(=O)Nc1ccc2ccccc2c1)c1ccc(Cl)cc1Cl [CBK267501]	87.6
COc1cccc(CNC(=O)NC(=O)C2CCN(C)CC2)c1 [CBK034828]	91.9
O=c1c2ccccc2nc2n1CCN(Cc1c(F)cccc1F)CC2 [CBK284817]	88.7
c1cncc(-c2cncc(NCCc3c[nH]c4ccccc34)n2)c1 [CBK065186]	89.7
Cc1nn(-c2cccc(C(=O)NC3CCCOC3)c2)c(C)c1Cl (stereo not drawn) [CBK282512]	83.6
CCC(=O)Nc1nonc1-c1nc2ccccc2n1Cc1ccc(F)cc1Cl [CBK269608]	84.1
CC(=O)Nc1nc2ccc(S(C)(=O)=O)cc2s1 [CBK287336]	110
Clc1ccc(COc2nccnc2OC2CCN(CC3CC3)CC2)cc1Cl [CBK083123T]	92.4

same assay, conditions: human, hela cells, % viability, bulk resorufin, single well

SMILES	viability at 28.5 h, 10 µM [%]
CCN1C(=O)/C(=C/Nc2ccc(S(N)(=O)=O)cc2)C(=O)NC1=S [CBK265687]	112
CCOC(=O)N1CCC2(CC1)OCc1ccc(-c3ccc(S(C)(=O)=O)cc3)cc1O2 [CBK133035]	86.1
